# The source made the active and inactive calls. No cut-off for these calls is given here.
# Columns and labels:
# [1] = molecular target: T1, Capsid scaffolding protein (Human herpesvirus 2 (strain HG52) (HHV-2) (Human herpes simplex virus2), UniProt P89449); assay: Inhibitory activity against herpes simplex virus type 2 (HSV-2) protease was determined using quenched fluorescence assay
# T1 sequence (P89449 whole entry): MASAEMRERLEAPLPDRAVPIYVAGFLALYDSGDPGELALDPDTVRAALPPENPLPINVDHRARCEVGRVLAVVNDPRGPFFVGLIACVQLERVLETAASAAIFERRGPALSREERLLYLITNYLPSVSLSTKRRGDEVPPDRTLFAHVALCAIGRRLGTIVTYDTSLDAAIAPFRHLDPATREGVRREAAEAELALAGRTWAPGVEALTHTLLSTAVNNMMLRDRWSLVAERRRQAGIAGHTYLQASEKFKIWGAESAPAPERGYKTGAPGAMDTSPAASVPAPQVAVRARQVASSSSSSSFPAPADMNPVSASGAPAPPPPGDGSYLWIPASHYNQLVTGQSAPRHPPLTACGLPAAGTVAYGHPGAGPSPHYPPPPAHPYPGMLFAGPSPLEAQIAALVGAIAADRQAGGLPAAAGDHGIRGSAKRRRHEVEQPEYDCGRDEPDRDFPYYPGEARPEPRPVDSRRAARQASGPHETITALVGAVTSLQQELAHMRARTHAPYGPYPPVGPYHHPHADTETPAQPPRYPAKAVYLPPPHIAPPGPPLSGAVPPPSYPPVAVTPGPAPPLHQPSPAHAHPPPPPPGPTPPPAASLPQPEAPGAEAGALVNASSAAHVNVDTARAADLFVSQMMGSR
# MRC5 = assay: Cytotoxicity by using MRC-5 cell culture assay (XTT); format: functional; conditions: Homo sapiens, read-out: TC50 (the source's name)
# Human alphaherpesvirus 2 [2] = assay: Inactivation rate against herpes simplex type 2 (HSV-2) was determined; format: functional
# Human alphaherpesvirus 2 [3] = assay: Cytotoxicity in herpes simplex virus type 2 (HSV-2); format: functional
# Human alphaherpesvirus 2 [4] = assay: Cytotoxicity against herpes simplex virus type 2 (HSV-2) infected cells by pulse chase (PC) assay; format: functional
# Human alphaherpesvirus 3 = assay: Inactivation rate against Varicella Zoster Virus (VZV) was determined; format: functional
# Human alphaherpesvirus 2 [5] = assay: Cytotoxicity against herpes simplex virus type 2 (HSV-2); format: functional
# Cytomegalovirus [6] = assay: Inhibitory activity against cytomegalovirus (CMV) herpes was determined using quenched fluorescence assay; format: functional, organism-based; conditions: Human betaherpesvirus 5
# Human alphaherpesvirus 2 [7] = assay: Cytotoxicity in herpes simplex virus type 2 (HSV-2); NI= no inhibition; format: functional, organism-based
# Cytomegalovirus [8] = assay: Inhibitory activity against cytomegalovirus (CMV) protease was determined using quenched fluorescence assay (IA=inactive up to 20 uM); format: functional, organism-based
# Human alphaherpesvirus 2 [9] = assay: Inhibitory activity against herpes simplex virus type 2 (HSV-2) protease was determined using quenched fluorescence assay (IA=inactive up to 20 uM); format: functional, organism-based
# [10] = test system: Varicella zoster virus protease (Varicella-zoster virus); assay: Inhibitory activity against Varicella Zoster Virus (VZV) protease was determined using quenched fluorescence assay (IA=inactive up to 20 uM)
# Human alphaherpesvirus 2 [11] = assay: Inhibitory activity against herpes simplex virus type 2 (HSV-2) herpes protease was determined using quenched fluorescence assay; format: functional, organism-based
# Cytomegalovirus [12] = assay: Inhibitory activity against cytomegalovirus (CMV) herpes protease was determined using quenched fluorescence assay; format: functional, organism-based; conditions: Human betaherpesvirus 5
smiles,measurement,setting,value
Cc1csc2nc([C@H](C)NC(=O)/C=C/c3c(F)cccc3Cl)oc(=O)c12,IC50,[1],520 nM
Cc1csc2nc([C@H](C)NC(=O)/C=C/c3ccccc3Br)oc(=O)c12,IC50,[1],480 nM
Cc1csc2nc([C@H](C)NC(=O)/C=C/c3ccc(C=O)cc3)oc(=O)c12,IC50,[1],530 nM
Cc1csc2nc([C@H](C)NC(=O)/C=C/c3ccc([N+](=O)[O-])cc3)oc(=O)c12,IC50,[1],940 nM
Cc1csc2nc([C@H](C)NC(=O)/C=C/c3ccc(Cl)s3)oc(=O)c12,IC50,[1],210 nM
same,CC50,MRC5,130 µM
same,K obs / 1,Human alphaherpesvirus 2 [2],58000 M⁻¹ s⁻¹
same,PC50,Human alphaherpesvirus 2 [3],18 µM
same,TC50,Human alphaherpesvirus 2 [4],>250 µM
same,K obs / 1,Human alphaherpesvirus 3,60000 M⁻¹ s⁻¹
Cc1csc2nc([C@H](C)NC(=O)/C=C/c3c(Cl)cccc3Cl)oc(=O)c12,IC50,[1],1970 nM
same,K obs / 1,Human alphaherpesvirus 2 [2],33000 M⁻¹ s⁻¹
same,K obs / 1,Human alphaherpesvirus 3,33000 M⁻¹ s⁻¹
Cc1csc2nc([C@H](C)NC(=O)/C=C/c3ccccc3)oc(=O)c12,IC50,[1],300 nM
same,CC50,MRC5,56 µM
same,K obs / 1,Human alphaherpesvirus 2 [2],65000 M⁻¹ s⁻¹
same,PC50,Human alphaherpesvirus 2 [5],7.5 µM
same,TC50,Human alphaherpesvirus 2 [4],>250 µM
same,K obs / 1,Human alphaherpesvirus 3,44000 M⁻¹ s⁻¹
Cc1csc2nc([C@H](C)NC(=O)/C=C/c3ccsc3)oc(=O)c12,IC50,Cytomegalovirus [6],380 nM
same,IC50,[1],330 nM
Cc1csc2nc([C@H](C)NC(=O)/C=C/c3ccc(O)cc3Cl)oc(=O)c12,IC50,Cytomegalovirus [6],190 nM
same,IC50,[1],230 nM
same,CC50,MRC5,100 µM
same,PC50,Human alphaherpesvirus 2 [7],inactive
same,TC50,Human alphaherpesvirus 2 [4],56 µM
Cc1csc2nc([C@H](C)NC(=O)/C=C/c3cccn3C)oc(=O)c12,IC50,[1],1000 nM
Cc1csc2nc([C@H](C)NC/C=C/c3ccccc3)oc(=O)c12,IC50,Cytomegalovirus [8],No inhibition
same,IC50,Human alphaherpesvirus 2 [9],No inhibition
same,IC50,[10],No inhibition
Cc1csc2nc([C@H](C)NC(=O)/C=C/c3ccccc3[N+](=O)[O-])oc(=O)c12,IC50,[1],720 nM
Cc1csc2nc([C@H](C)NC(=O)/C=C/c3cc(Br)cs3)oc(=O)c12,IC50,[1],190 nM
Cc1csc2nc([C@H](C)NC(=O)/C=C/c3sccc3Br)oc(=O)c12,IC50,[1],250 nM
Cc1csc2nc([C@H](C)NC(=O)/C=C/c3ccccc3Cl)oc(=O)c12,IC50,[1],610 nM
Cc1ccc(/C=C/C(=O)N[C@@H](C)c2nc3scc(C)c3c(=O)o2)s1,IC50,[1],650 nM
Cc1ccsc1/C=C/C(=O)N[C@@H](C)c1nc2scc(C)c2c(=O)o1,IC50,[1],330 nM
Cc1csc2nc([C@H](C)NC(=O)/C=C/c3ccc([N+](=O)[O-])s3)oc(=O)c12,IC50,[1],570 nM
COc1cccc(OC)c1/C=C/C(=O)N[C@@H](C)c1nc2scc(C)c2c(=O)o1,IC50,[1],1300 nM
Cc1csc2nc([C@H](C)NC(=O)/C=C/c3ccnc4ccccc34)oc(=O)c12,IC50,[1],250 nM
same,K obs / 1,Human alphaherpesvirus 2 [2],76000 M⁻¹ s⁻¹
same,K obs / 1,Human alphaherpesvirus 3,45000 M⁻¹ s⁻¹
Cc1csc2nc([C@H](C)NC(=O)/C=C/c3ccc(Br)s3)oc(=O)c12,IC50,[1],270 nM
same,CC50,MRC5,83 µM
same,K obs / 1,Human alphaherpesvirus 2 [2],12000 M⁻¹ s⁻¹
same,PC50,Human alphaherpesvirus 2 [3],8 µM
same,TC50,Human alphaherpesvirus 2 [4],>250 µM
same,K obs / 1,Human alphaherpesvirus 3,63000 M⁻¹ s⁻¹
Cc1csc2nc([C@H](C)NC(=O)/C=C/c3ccccn3)oc(=O)c12,IC50,[1],500 nM
Cc1csc2nc([C@H](C)NC(=O)C=C(c3ccccc3)c3ccccc3)oc(=O)c12,IC50,[1],500 nM
Cc1csc2nc([C@H](C)NC(=O)C=C(c3cccs3)c3cccs3)oc(=O)c12,IC50,[1],110 nM
same,CC50,MRC5,95 µM
same,K obs / 1,Human alphaherpesvirus 2 [2],120000 M⁻¹ s⁻¹
same,PC50,Human alphaherpesvirus 2 [7],inactive
same,TC50,Human alphaherpesvirus 2 [4],21 µM
Cc1csc2nc([C@H](C)NC(=O)/C=C/c3ccc(N(C)C)cc3)oc(=O)c12,IC50,[1],570 nM
Cc1csc2nc([C@H](C)NC(=O)/C=C/c3ccc(Br)o3)oc(=O)c12,IC50,[1],490 nM
COc1cc(/C=C/C(=O)N[C@@H](C)c2nc3scc(C)c3c(=O)o2)cc(OC)c1,IC50,[1],350 nM
Cc1csc2nc([C@H](C)NC(=O)/C=C(\c3ccccc3)c3cccs3)oc(=O)c12,IC50,[1],260 nM
Cc1csc2nc([C@H](C)NC(=O)/C=C/c3c(F)cccc3F)oc(=O)c12,IC50,[1],630 nM
Cc1csc2nc([C@H](C)NC(=O)/C=C(\Sc3ccccc3)c3ccccc3)oc(=O)c12,IC50,Human alphaherpesvirus 2 [11],3.1 µM
same,IC50,Cytomegalovirus [12],1900 nM
Cc1csc2nc([C@H](C)NC(=O)/C=C/c3cccc(Cl)c3)oc(=O)c12,IC50,[1],980 nM
Cc1ccccc1/C=C/C(=O)N[C@@H](C)c1nc2scc(C)c2c(=O)o1,IC50,Cytomegalovirus [6],20000 nM
same,IC50,[1],1500 nM
Cc1cc(/C=C/C(=O)N[C@@H](C)c2nc3scc(C)c3c(=O)o2)c(C)s1,IC50,[1],190 nM
same,CC50,MRC5,180 µM
same,K obs / 1,Human alphaherpesvirus 2 [2],53000 M⁻¹ s⁻¹
same,PC50,Human alphaherpesvirus 2 [3],12 µM
same,TC50,Human alphaherpesvirus 2 [4],130 µM
same,k obs / 1,Human alphaherpesvirus 3,76000 M⁻¹ s⁻¹
Cc1csc2nc([C@H](C)NC(=O)/C=C/c3ccsc3Br)oc(=O)c12,IC50,[1],200 nM
CCOc1ccccc1/C=C/C(=O)N[C@@H](C)c1nc2scc(C)c2c(=O)o1,IC50,[1],560 nM

# — ChEMBL document CHEMBL1132395, “Inhibition of herpes proteases and antiviral activity of 2-substituted thieno[2,3-d]oxazinones” (Bioorg Med Chem Lett, 1999)
